Reference: PubChem BioAssay AID1919007 (Molecular Pharmacology Branch, DTP, NCI, 2023)
pIC50: −log10 of the molar value. Values joined by “and” are separate entries in the source; they are usually repeats but may differ in a detail not shown here. Identical values can stand only once.

Test system: A498 complex spheroids with HUVEC/MSC, growth
Test: Anticancer human tumor A498 cell line growth inhibition [AhR];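 note: seven day exposure starting three days after spheroid seeding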;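 for viability, T/C: luminescence signal used as a surrogate for viable cells; luminescence viability scaled so 100% equals DMSO vehicle wells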
Conditions: for viability, T/C: stronger effect = lower value; for pIC50: curve of compound
Description: Multicellular complex tumor spheroid response to aryl hydrocarbon receptor antagonists in combination with a variety of drugs and investigational agents in selected tumor cell lines
The current study was undertaken to assess response to aryl hydrocarbon receptor antagonists in combination with standard-of-care drugs and investigational agents in solid tumor complex spheroid models. Complex spheroids include a stromal component modeled by human endothelial cells (HUVEC) and fibroblasts modeled by human mesenchymal stem cells (MSCs). The concentration ranges selected for each drug and investigational agent were based upon clinically achievable concentrations if the clinical Cmax of the agent was known.
Compounds. The drugs and investigational agents: BAY 2416964 (NSC825713), GNF351 (NSC835774), CH-223191 (NSC835775), CPI-455 (NSC825282), aza-TdCyd (NSC777586), decitabine (NSC127716), belinostat (NSC758774), entinostat (NSC756642), pevonedistat (NSC761192), tazemetostat (NSC777109), talazoparib (NSC765396), olaparib (NSC753686), selinexor (NSC780203), nedisertib (M3814, NSC802822), bortezomib (NSC756655), venetoclax (NSC766270), doxorubicin (NSC123127), elimusertib (BAY189344, NSC800525), ceralasertib (AZD6738, NSC777638), TAK-243 (NSC785004), alisertib (NSC759677), etoposide (NSC141540), topotecan (NSC609699), eribulin (NSC707389), gemcitabine (NSC613327), carboplatin (NSC241240), cisplatin (NSC119875), and SN-38 (NSC673596) were obtained from the National Cancer Institute (NCI) Developmental Therapeutics Program Chemical Repository (32). The FDA-approved anticancer drug set is available from the Developmental Therapeutics Program at https://dtp.cancer.gov/organization/dscb/obtaining/available plates.htm. […] The stock solutions were prepared in dimethyl sulfoxide (DMSO, Sigma-Aldrich, St. Louis, MO, cat. D2650), except for the platinum compounds which were prepared in saline (Quality Biological, Gaithersburg, MD, cat. 114-055-101), at 800-fold the tested concentration and stored at -70 degrees C prior to their use. All drugs and investigational agents were tested over a range starting from a high concentration at or near the clinical Cmax and decreasing in half-log increments. If the clinical Cmax for an agent had not been determined, the highest concentration tested was 10 microM (Table 1).
Cell Culture. All cells were maintained in an incubator at 37 degrees C and 5% CO2 with 95% humidity. The PDC lines were cultured according to standard operating procedures established by the NCI PDMR (https://pdmr.cancer.gov). Briefly, all PDCs were thawed and cultured in Matrigel-coated flasks prepared with a working solution of 1X Ham's F-12 nutrient mix, without supplementation (Invitrogen, Waltham, MA, cat. 11765054), 100 U/mL penicillin-streptomycin (Invitrogen, cat. 15140122), and 2.5% Matrigel (Corning Inc., Corning, NY, cat. 354248) for the first three passages. All PDCs were cultured in complete DMEM/F-12 media containing advanced DMEM/F-12 (Invitrogen, cat. 12634028), 4.9% defined fetal bovine serum, heat inactivated (HyClone Laboratories Inc., Logan, UT, cat. SH30070.03HI), 389 ng/mL hydrocortisone (Sigma-Aldrich, cat. H4001), 9.7 ng/mL human EGF recombinant protein (Invitrogen, cat. PHG0313), 23.4 microg/mL adenine (Sigma-Aldrich, cat. A2786), 97.3 U/mL penicillin-streptomycin (Invitrogen, cat. 15140122), 1.9 mM L-glutamine (Invitrogen, cat. 25030081), and 9.7 microM Y-27632 dihydrochloride (Tocris Bioscience, Bristol, United Kingdom, cat. 1254). The PDCs were cultured in complete DMEM/F12 media without 10 microM Y-27632 dihydrochloride for at least two passages prior to the screen. The established cell lines NCI-H1341 and […] were cultured in DMEM/F-12, HEPES (Invitrogen, cat. 11330032), 5% defined fetal bovine serum (HyClone Laboratories Inc., cat. SH30070.03), ITS premix universal culture supplement [insulin (5 microg/mL), transferrin (5 microg/mL), and selenious acid (5 ng/mL)] […]

SMILES	viability, T/C (compound 0.0316 µM)	viability, T/C (compound 0.1 µM)	viability, T/C (compound 0.316 µM)	viability, T/C (compound 1 µM)	viability, T/C (compound 3.16 µM)	viability, T/C (compound 10 µM)	pIC50	also measured
COc1ccc([C@@H](O)c2cc(-c3ncnc4cc(N5CCOCC5)ccc34)c(F)cc2Cl)nn1	96.5% and 95.1% and 98.9%	92% and 80.4% and 92.3%	64.8% and 60.7% and 62%	40.2% and 59.5% and 30.9%	23.1% and 19.5% and 17.6%	12.3% and 7.92% and 9.02%	6.18 and 6.05 and 6.29	–
COc1cccc2c1C(=O)c1c(O)c3c(c(O)c1C2=O)CC(O)(C(=O)CO)CC3OC1CC(N)C(O)C(C)O1 (configuration not stated)	67.3% and 67.5% and 58.1%	70.1% and 60.3% and 55.9%	56.7% and 50.1% and 38.2%	23.9% and 24.6% and 18.1%	1.61% and 1.62% and 1.55%	0.78% and 0.83% and 0.85%	6.39 and 6.50 and 6.85	–
Cc1cncc(-c2nc(NCCc3c[nH]c4ccccc34)c3ncn(C(C)C)c3n2)c1	–	90% [middle of 20 runs]	95.3% [middle of 20 runs]	87.7% [middle of 20 runs]	–	4.87% [middle of 19 runs]	–	IC50 (compound alone, run of 08/16/2022): 3.7 µM [middle of 24 runs]
Cn1ncnc1C1c2n[nH]c(=O)c3cc(F)cc(c23)NC1c1ccc(F)cc1 (configuration not stated)	112% and 106% and 103%	107% and 98.3% and 85.8%	–	–	–	–	< 7.00	viability, T/C (compound 0.000316 µM): 105% and 97.2% and 110%; viability, T/C (compound 0.001 µM): 117% and 105% and 114%; viability, T/C (compound 0.00316 µM): 109% and 102% and 103%; viability, T/C (compound 0.01 µM): 108% and 101% and 100%
NS(=O)(=O)OCC1CC(n2ccc3c(NC4CCc5ccccc54)ncnc32)CC1O (configuration not stated)	96.3% and 93.7% and 99.8%	93.4% and 87.1% and 85.3%	56.3% and 53.1% and 37.4%	34.4% and 34.5% and 28.6%	23.7% and 26.2% and 21.3%	16.6% and 20% and 16.1%	6.32 and 6.38 and 6.62	–
Nc1ccccc1NC(=O)c1ccc(CNC(=O)OCc2cccnc2)cc1	83.7% and 98.2% and 88.8%	83.4% and 95.8% and 93.6%	88.2% and 84.4% and 77.7%	61.2% and 70.2% and 50.5%	21.5% and 29.6% and 23.1%	2.22% and 2% and 2.21%	5.84 and 5.76 and 5.96	–
Nc1ccn(C2OC(CO)C(O)C2(F)F)c(=O)n1 (configuration not stated)	30.9% and 36.6% and 26.1%	35.4% and 37.9% and 25.6%	50.1% and 45.6% and 30.7%	43% and 49.6% and 32.6%	40.7% and 51.3% and 33%	42.1% (2×) and 29.6%	> 7.50	–
Nc1ncn(C2CC(O)C(CO)O2)c(=O)n1 (configuration not stated)	94% and 91.7% and 104%	87.1% and 96.7% and 97.3%	97.1% and 81.1% and 97.3%	72.5% and 71.4% and 83.5%	–	–	< 6.00	viability, T/C (compound 0.00316 µM): 95.4% and 108% and 105%; viability, T/C (compound 0.01 µM): 101% and 108% and 107%
Nc1ncn(C2CC(O)C(CO)S2)c(=O)n1 (configuration not stated)	–	–	–	–	–	–	< 6.52	viability, T/C (compound 0.000949 µM): 100% and 102% and 109%; viability, T/C (compound 0.003 µM): 99.7% and 106% and 114%; viability, T/C (compound 0.00949 µM): 94.9% and 101% and 108%; viability, T/C (compound 0.03 µM): 97.8% and 105% and 96%; viability, T/C (compound 0.0949 µM): 79.2% and 95.2% and 85%; viability, T/C (compound 0.3 µM): 81% and 89.7% and 68.3%
O=C(C=Cc1cccc(S(=O)(=O)Nc2ccccc2)c1)NO	96.9% and 99.7% and 91.8%	97.1% and 90.4% and 87.2%	77.8% and 90.1% and 67.2%	56.2% and 65.4% and 52.6%	45.1% and 51.9% and 33.4%	16.7% and 20.2% and 6.75%	5.73 and 5.51 and 5.93	–
O=C(C=Cn1cnc(-c2cc(C(F)(F)F)cc(C(F)(F)F)c2)n1)NNc1cnccn1	–	–	–	–	–	–	7.00 and 6.95 and 7.14	viability, T/C (compound 0.00949 µM): 99.2% and 101% and 90.7%; viability, T/C (compound 0.03 µM): 94.7% and 85.9% and 72.4%; viability, T/C (compound 0.0949 µM): 49.8% and 49% and 42.5%; viability, T/C (compound 0.3 µM): 34.6% and 34.1% and 25.4%; viability, T/C (compound 0.949 µM): 26.4% and 25% and 20.6%; viability, T/C (compound 3 µM): 23.9% and 17% and 14.4%
O=C(c1cc(Cc2n[nH]c(=O)c3ccccc23)ccc1F)N1CCN(C(=O)C2CC2)CC1	100% and 101% (2×)	103% and 100% and 104%	99.4% and 99.2% and 99.5%	108% and 99.4% and 100%	106% and 98.4% and 101%	94% and 92.4% and 92.1%	< 5.00	–
